Values after ≈ are worked out from the molar mass of the structure shown. Values joined by “and” are separate entries in the source; they are usually repeats but may differ in a detail not shown here. Equal values may be shown once.
Tests used:
[1] = tested on: A549 NSCLC cells or MiaPaCa-2 pancreatic cancer cells; assay: Sensitivity enhancement: PARP1 inhibitors combined with β-lapachone or DNQ, relative survival; assay type: cell-based, human; conditions: 10 = one log kill, 100 = two logs kill; for Sensitivity Enhancement (change in survival) with Deoxynyboquinone (DNQ): nontoxic DNQ (0.02 μM A549, 0.025 μM MiaPaca-2) + optimal dose (15 μM) of PARP1 inhibitor; for Sensitivity Enhancement (change in survival) with β-Lapachone: nontoxic β-lapachone (3 μM A549, 2 μM Mia Paca2) + optimal dose (15 μM) of PARP1 inhibitor
Description: Mia PaCa-2 cells were treated for 2 hours with the inhibitors noted in FIG. 30 and then with DNQ+the inhibitors (all at 15 μM) for 2 hours.

[2] = tested on: A549 and Mia PaCa-2 cells; assay: AG014699 alone, lethality in BRCA1 wild-type cancer cells; assay type: cell-based; conditions: drug alone
Text: FIGS. 33A-D. AG014699 enhances the NQO1-dependent lethality of ß-lapachone in A549 NSCLC cells.
AG014699 enhances the NQO1-dependent lethality of ß-lapachone in A549 NSCLC cells (FIG. 33).

BRCA1−/− CAPAN-1 cells = assay: AG014699 alone, synthetic lethality control; assay type: cell-based
PARP1 = assay: PAR formation (PARP1 inhibition) in cells treated with NQO1 bioactivatable drug plus inhibitor; assay type: cell-based; conditions: inhibitors at 15 μM
in vivo = conditions: NOD/SCID, mouse, iv
[3] = tested on: NOD/SCID mice injected with 3LL-Luc cells; assay: DNQ derivatives pilot study of maximum tolerated dose (MTD); conditions: 3 NOD/SCID mice
breast cancer cells = assay: IB-DNQ (DNQ87) lethality in breast cancer cells; assay type: cell-based; conditions: NQO1-dependent
Text: It is effective against breast cancer cells in an NQO1-dependent manner, as well as triple-negative breast cancer cells (A-F, for various cell types).
Unlike β-lapachone (ß-lap), efficacy of DNQ87 increases in an NQO1-dependent manner and the therapeutic window is larger (FIG. 14). […] (C) PARP1 hyperactivation caused by DNQ87 exposure measured by PAR-PARP1 formation, highlighted by μ-calpain-mediated p53 cleavage (C) and atypical cleavage of PARP1 to ^˜60 kDa proteolytic fragments during cell death (D). DNQ87 also causes DNA lesions (DNA double strand breaks) in a delayed manner, monitored by gamma-H2AX, phosphorylation of ATM at ser1981, and phosphorylation of DNA-PKcs at site Thr1892 (FIG. 16).

[4] = Aqueous solubility in PBS pH 7.4 by LC-MS; assay type: physicochemical; conditions: pH 7.4 PBS, 30 min sonication, filtered
Description: The aqueous solubility of DNQ at pH 7.4 in phosphate buffered saline (PBS) was measured by LC-MS. DNQ was sonicated for 30 minutes in PBS then undissolved solid was removed by filtration through a 0.45 μm syringe filter and the filtrate was analyzed by LC-MS (λ=275 nm, ESI-TOF in negative mode). The optimal sonication time was determined by sonicating DNQ for 1, 5, 10, and 30 minutes. While the concentration of DNQ in solution increased substantially between 1, 5, and 10 minutes, there was only a minor difference between 10 and 30 minutes. During the 30 minute sonication the water bath warmed to 45° C. (samples were cooled to room temperature before filtration). A calibration curve was generated from 1-100 μM by dissolving DNQ in methanol to a concentration of 500 μM and making dilutions of this stock in 80:20 water:methanol. The calibration curve (measure by UV absorbance) was linear over this range; 1 μM was approximately the limit of detection. […] The solution was very pale yellow.

[5] = Formulation of DNQ compounds in HPβCD (solubility, solution stability); assay type: physicochemical
Text: This same neutral solution of DNQ in HPβCD cannot be made directly (i.e. without pH adjustment). […] The only proton on DNQ that might reasonably be deprotonated in aqueous base is the N—H. Although the acidity of the N—H bond of DNQ has not been measured, it has been measured for a derivative of DNQ and found to have a pKa of 8.0.
The protocol for formulating DNQ compounds in HPβCD is as follows: the DNQ compound is slurried in a 20% solution of HPβCD in pH 7.4 PBS and the pH is then increased by the addition of 10 M NaOH to induce dissolution of the DNQ compound. The pH is returned to pH 7.5-8.0 by the careful addition of 1 M HCl. A 3.3 mM solution of the DNQ compound can be made by this method which is stable at least 24 hours. This represents a 30-fold increase in solubility of DNQ over PBS alone. We initially chose a 20% HPβCD solution.

[6] = tested on: NOD/SCID mice injected with 3LL-Luc cells; conditions: mouse, in vivo, iv
[7] = tested on: Mia Paca2 pancreatic cancer cells; assay: Methoxyamine alone: relative survival and ATP loss; assay type: cell-based
Description: FIGS. 20A-C. Determination of lethal vs. sublethal doses of methoxyamine (MeOX or MX, as indicated); A, MeOX with β-lapachone; B, MeOX; C, MeOX.
(§1) B and C, Methoxyamine (MeOX) is an AP-site modifying chemical that is nontoxic to >100 mM as measured by relative survival and ATP loss. Optimal concentrations in combination with NQO1 bioactivatable drugs are between 6-12 mM. FIG. 21 illustrates Proof of Principle studies. A. Methoxyamine (MeOX) augments ß-lapachone ß-lap)-induced lethality in MiaPaca2 pancreatic cancer cells. B. Addition of MeOX modifies AP sites and therefore decreases signal of AP site formation in ß-lap+MeOX exposed cells. MeOX dose was 12 mM, ß-lap Dose was 6 μM. C,D. XRCC1 is a scaffolding protein that enables base excision repair (BER). Elimination of XRCC1 causes elevated AP sites and DNA single strand breaks, at which PARP1 can bind and become activated/hyperactivated. Knockdown of XRCC1 (C) enhances the lethality of ß-lapachone treatment.

[8] = tested on: Mia Paca2 pancreatic cancer cells; assay: Methoxyamine plus ß-lapachone lethality (colony forming assays); assay type: cell-based; conditions: nonlethal doses of methoxyamine
Description: FIGS. 9A-F. Methoxyamine (MeOX) enhances β-lap-induced NQO1-driven lethality. Mia Paca-2 cells were treated with indicated doses of β-lap+/−MeOX (12 mM), or β-lap alone for 2 hours. Endpoints examined: (A) Colony forming assays show synergy of MeOX+ß-lap; (B) MeOX treatment modifies AP sites induced by β-lap in Mia Paca-2 cells; (C) MeOX enhances β-lap-induced ATP loss; (D) MeOX blocks ATP recovery after sublethal β-lap doses; (E) β-lap+MeOX co-treatment enhances γH2AX foci formation. […] Dicoumarol (DIC, 50 μM, 2 h) blocked synergy.
as §1

Mia PaCa-2 cells = assay: ß-lapachone lethal vs. sublethal doses, 2 h treatment; assay type: cell-based; conditions: listed as ß-lapachone
Description: MeOX, 12 mM; Dicoumarol, NQO1 inhibitor, 50 μM; ß-lapachone doses, indicated or 2 μM. For Mia Paca2 cells, 2-2.5 μM is sublethal, 6 μM is lethal. H2O2 dose was 500 μM, 2 h. All treatments were 2 h in duration. Cells were treated 2× with MeOX, as a 2 h pretreatment and then for 2 h in combination with ß-lap where applicable.
Addition of Methoxyamine (MeOX) prevents ATP recovery responses in ß-lap-treated Mia PaCa-2 cells at lethal and sublethal doses (FIG. 24). Lethal doses of ß-lapachone were 6 and 4 μM, whereas 3.0 and 2.5 μM are sublethal doses of ß-lapachone (ß-lap).

A549 NSCLC cells = assay: ß-lapachone nontoxic vs. lethal dose, 2 h; assay type: cell-based, human
Description: FIGS. 46A-B. DNA damage via combinatorial treatment. (A) A549 NSCLC cells were pre-treated with or without Rucaparib (AG014699) and then exposed to a nontoxic dose of ß-lapachone (3 μM) at the concentrations indicated with or without the same PARP1 inhibitor. Cells were also exposed to a lethal dose of ß-lapachone (8 μM). Cells were then analyzed by neutral comet assays and DNA damage graphed in (B).
A459 NSCLC cells were pretreated with 15 μM AG014699 for 2 hours, then exposed to the same concentration of AG014699+various concentrations of DNQ87 for 2 hours as indicated (FIG. 45). Cells were then washed free of drug and relative survival performed as previously described (Huang et al., Cancer Res., 2012). Cells treated in this manner by nontoxic doses of ß-lap show enhanced DNA lesion formation, equivalent to DNA lesions formed by a lethal dose of ß-lap (8 μM, 2 hours) (FIG. 46).

[9] = tested on: MIA PaCa-2 tumor xenografts; assay: Antitumor efficacy in tumor xenografts; assay type: in vivo, mice; conditions: β-lap-HPβ-CD at 20 or 30 mg/kg, iv
Description: (A) Body weight changes of mice bearing orthotopic MIA PaCa-2 tumors. (B) Kaplan-Meier survival for pancreatic antitumor efficacy experiments described in (A). Log-rank analyses were performed comparing survival curves (***p<0.0001) for HPβ-CD vs. β-lap-HPβ-CD at 20 or 30 mg/kg, iv. Results are combined survival data from three similar experiments. (C) Bioluminescent images (BLI) of mice bearing spleen-implanted pancreas cancers before and after treatment with HPβ-CD or β-lap-HPβ-CD (Arq761) at 20 or 30 mg/kg, iv. (D) Quantification of pancreatic tumor burden. BLI (photons per second) were determined before and 12 days post-therapy with HPβ-CD or β-lap-HPβ-CD at 20 or 30 mg/kg, iv. Results are means, +SE (n=5). Student's t tests (***p<0.005) were performed comparing HPβ-CD vs. β-lap-HPβ-CD at 20 or 30 mg/kg, iv. V, Vehicle (HPβ-CD).
Altering BER or SSB repair can enhance NQO1 bioactivatable drug efficacy in a tumor-selective manner. siRNA-mediated knockdown of the Ogg1 glycosylase renders s-lap-treated pancreatic cancer cells resistant to ß-lapachone (FIG. 6), however NQO1 bioactivatable drugs cause SSBs and base lesions in a tumor-specific manner, thus they can be used to make DNA repair inhibitors tumor-selective (FIG. 7). PARP1 inhibitors synergize with NQO1 bioactivatable drugs for enhanced efficacy in NQO1+ cancer cells, such as pancreatic cancer cells (FIG. 8). […]

NQO1 = NQO1 (Homo sapiens, UniProt P15559); conditions: in two minutes; cited from earlier work
NQO1, sequence (P15559 whole entry): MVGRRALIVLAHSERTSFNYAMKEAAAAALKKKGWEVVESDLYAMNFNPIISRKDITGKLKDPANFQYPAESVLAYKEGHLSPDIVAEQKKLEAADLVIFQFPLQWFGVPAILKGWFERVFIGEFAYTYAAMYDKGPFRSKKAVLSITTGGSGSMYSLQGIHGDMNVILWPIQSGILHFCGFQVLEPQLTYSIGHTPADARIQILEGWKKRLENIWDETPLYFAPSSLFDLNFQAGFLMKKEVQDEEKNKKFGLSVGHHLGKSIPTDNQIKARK

C[C@]1(c2nc3c(C(N)=O)cccc3[nH]2)CCCN1 [ABT-888, Veliparib]
Sensitivity Enhancement (change in survival) with Deoxynyboquinone (DNQ) [1]: 15 | Sensitivity Enhancement (change in survival) with β-Lapachone [1]: 10

CN(C)Cc1ccc(-c2nc3cccc4c3n2CCNC4=O)cc1 [AG14361]
Sensitivity Enhancement (change in survival) with Deoxynyboquinone (DNQ) [1]: 10 | Sensitivity Enhancement (change in survival) with β-Lapachone [1]: 5

CNCc1ccc(-c2[nH]c3cc(F)cc4c3c2CCNC4=O)cc1 [AG-014699, Rucaparib]
Sensitivity Enhancement (change in survival) with Deoxynyboquinone (DNQ) [1]: 100 | Sensitivity Enhancement (change in survival) with β-Lapachone [1]: 10 | response of BRCA1 wild-type cells to the PARP1 inhibitor alone [2]: completely resistant | lethality of drug alone (BRCA1−/− CAPAN-1 cells): synthetic lethality

O=C(c1cc(Cc2n[nH]c(=O)c3ccccc23)ccc1F)N1CCN(C(=O)C2CC2)CC1 [AZD2281, Olaparib]
Sensitivity Enhancement (change in survival) with Deoxynyboquinone (DNQ) [1]: 20 | Sensitivity Enhancement (change in survival) with β-Lapachone [1]: 10

NC(=O)c1ccc(I)c([N+](=O)[O-])c1 [BSI-201, Iniparib]
Sensitivity Enhancement (change in survival) with Deoxynyboquinone (DNQ) [1]: 4 | Sensitivity Enhancement (change in survival) with β-Lapachone [1]: 3 | inhibition of PAR formation (PARP1): not an efficacious PARP1 inhibitor

Cc1cc(=O)[nH]c2c1C(=O)c1c(C)cc(=O)n(CCC(C)(C)C)c1C2=O [Compound 9-251]
MTD at 5 injections, 1x every other day (in vivo): 20 mg/kg | Dead mice (5 IV.) ([3]; 20 mg/kg): 0

CCCn1c2c(c(C)cc1=O)C(=O)c1c(C)cc(=O)[nH]c1C2=O [Compound 10-41]
MTD at 5 injections, 1x every other day (in vivo): 7 mg/kg | Dead mice (5 IV.) ([3]; 15 mg/kg): 3

Cc1cc(=O)[nH]c2c1C(=O)c1c(C)cc(=O)n(CC(C)C)c1C2=O [Compound 87]
effective doses relative to ß-lapachone and DNQ (breast cancer cells): works at much lower doses versus ß-lapachone and at doses equivalent to the parental DNQ compound | MTD at 5 injections, 1x every other day (in vivo): ~16 mg/kg | Dead mice (5 IV.) ([3]; 14 mg/kg): 0

CCc1cc(=O)n(C)c2c1C(=O)c1c(C)cc(=O)[nH]c1C2=O [Compound 107]
MTD at 5 injections, 1x every other day (in vivo): 8 mg/kg | Dead mice (5 IV.) ([3]; 10 mg/kg): 1

Cc1cc(=O)[nH]c2c1C(=O)c1c(C)cc(=O)n(C)c1C2=O [DNQ, Deoxynyboquinone]
solubility in PBS [4]: 115 µM (≈ 32.7 µg/mL) | stability of HPβCD solution ([5]; 3.3 mM in 20% HPβCD): at least 24 hours | increase in solubility over PBS alone ([5]; 20% HPβCD): 30 fold | concentration of solution in HPβCD ([5]; 20% HPβCD in pH 7.4 PBS, pH raised with NaOH then returned to 7.5-8.0): 3300 µM | concentration of solution in HPβCD ([5]; 40% HPβCD, extrapolated from linear increase with HPβCD): 6600 µM | MTD [6]: 6 | Dead mice (5 IV.) ([3]; 7.5 mg/kg): 2

O=c1[nH]cnc2c1ncn2[C@@H]1O[C@H](CO)[C@@H](O)[C@H]1O [INO-1001]
Sensitivity Enhancement (change in survival) with Deoxynyboquinone (DNQ) [1]: 10 | Sensitivity Enhancement (change in survival) with β-Lapachone [1]: 7

CON [Methoxyamine, methoxyamine]
optimal concentration in combination with NQO1 bioactivatable drugs [7]: 6 to 12 mM | nontoxic concentration ([7]; measured by relative survival and ATP loss): > 100 mM | lethality in combination with ß-lapachone [8]: synergistic lethality

CC1(C)CCC2=C(O1)c1ccccc1C(=O)C2=O [β-Lapachone, β-lapachone]
sublethal dose (Mia PaCa-2 cells): 2 to 2.5 µM and 3.0 µM and 2.5 µM | nontoxic dose (A549 NSCLC cells): 3 µM | lethal dose (A549 NSCLC cells; 2 hours): 8 µM | antitumor efficacy [9]: significant antitumor efficacy | superoxide generated per mole of compound (NQO1): ~120 mol
